Source: patent US20210275514A1, “COMPOUNDS FOR USE IN TREATING KIDNEY DISORDERS” (Hoffmann-La Roche Inc., priority 2018, published 2021)
Entries after “also recorded” stand apart in the source; their conditions may differ.

Assays:
ABCA1 [1] = assay: ABCA1 expression by western blot in differentiated podocytes; format: cell-based, human; details: 18 h
Method: Podocytes differentiated for 14 days were starved in RPMI-0.2% FBS for 18 h and then treated with freshly prepared dilutions of compounds in full media for 18 h at 37° C. and 5% CO2. Compound concentrations of 1 μM, 5 μM and 10 μM were evaluated. Cells were then washed with PBS and lysed with 1× cell lysis buffer (Cell Signaling) supplemented with protease and phosphatase inhibitor cocktails (Roche). Total protein content was determined by BCA method (Pierce, Thermoscientific). ABCA1 expression was analyzed by western blot.
(§1) Lysates, or cell fractions were incubated with buffer sample at 55° C. for 10 min under reducing conditions. A total of […] of protein in lysates, and one third of the volume collected in cell fraction preps, were separated by SDSPAGE in 4-20% gels (Biorad) and proteins were then transferred to PVDF membranes. Membranes were blocked with 5% milk and blotted with protein-specific antibodies for 18 h at 4° C. The following antibodies were used: mouse anti-ABCA1 (Abcam; 1:1,000), rabbit anti-GAPDH antibody (Millipore; 1:10,000), rabbit anti-MEK and anti-Na^+/K^+ ATPase (Cell Signaling; 1:1,000). After washing with PBS-T, membranes were incubated with anti-mouse and anti-rabbit specific antibodies conjugated to HRP (Promega) 1:10,000 in 5% milk. Membranes were washed and signal was developed using Western bright ECL substrate (Advansta).

ABCA1 [2] = assay: Cell fractionation, ABCA1 localization by western blot; format: cell-based, human; details: 18 h
Method: 14 day-differentiated podocytes were treated with compounds Cpd C (1 μM), Cpd A (5 μM) and Cpd G (10 μM) for 18 h and then washed and scraped with ice cold PBS. Cells were centrifuged at 1,000×g for 5 min, supernatant was carefully aspirated and the pellet resuspended in hypotonic buffer (15 mM KCl, 1.5 mM MgCl2, 10 mM HEPES and 1 mM DTT) supplemented with Roche's protease inhibitor cocktail. Further cell rupture was ensured by frothing in a glass douncer and two freeze and thaw cycles. Sucrose was added, 227 mM final concentration, and the cells were centrifuged at 1,000×g for 30 min at 4° C. The supernatant was then transferred to a new tube and centrifuged at 10,000×g for 15 min at 4° C. The pellet, containing the microsomal fraction was collected and the supernatant was transferred to a new tube and centrifuged at 100,000×g for 1 hr at 4° C. The pelleted plasma membrane fraction was collected and the supernatant, containing non membranous cytosolic fraction, was concentrated in Vivaspin 500 filter columns. The presence of ABCA1, and proteins known to be present at the plasma membrane (Na^+/K^+ sodium pump) and cytosol (MEK), in each fraction was verified by western blot.
as §1

ABCA1 [3] = assay: ApoA1-mediated cholesterol efflux in differentiated podocytes; format: cell-based, human; details: 18 h
Method: Human podocytes differentiated for 13 days were labeled with 1 μCi/ml of [^3H]-cholesterol in RPMI media with 2% FBS for 24 h. Cells were then washed with PBS and incubated with equilibration media (RPMI-0.2% fat free-BSA) supplemented with vehicle or compounds Cpd C (1 μM), Cpd A (1 μM, 5 μM) and Cpd G (1 μM, 5 μM, 10 μM) for 18 h. Cells were then washed with PBS, and incubated with equilibration media with or without 20 μg/ml of human ApoA1 for 18 h at 37° C., 5% CO2. Media was collected, spun at 12,000×g for 5 min and the radioactivity of the 200 μl aliquot was counted by liquid scintillation. Cells were washed with PBS, lysed with 250 μl 0.1% SDS, 0.1 M NaOH and the radioactivity in 100 μl aliquot was measured by liquid scintillation. Cholesterol efflux was calculated as the % of labeled cholesterol that moved from the cell to the media by the formula:
Efflux (%)=100×{(cpm media)/[(cpm media)+(cpm lysate)]}
ApoA1-mediated cholesterol efflux was calculated as the difference between the efflux in the presence or absence of ApoA1. All treatments were done in duplicate. More than 3 independent experiments were performed.

[4] = tested on: ADR-induced nephropathy in Balb/c mice; assay: Adriamycin-induced kidney damage, dose finding experiment, 35 days; format: in vivo, mouse; details: for Albuminuria / proteinuria / Body weight loss: 5 weeks after ADR; for TOTAL CHOL (blood) / TRIGLYCERIDES (blood): 35 days after ADR injection
Method: First, we performed a preliminary experiment to explore the best dose of compounds to be used and to determine if other experimental variables needed to be adjusted. In this experiment, 30 mice received a single dose of Adriamycin (Sigma-Aldrich, 12 mg/Kg, via tail vein injection) and then were randomly separated into 6 groups of 5 mice each. Another 5 mice were injected with 0.9% NaCl by the same route and were used as a no-kidney injury baseline group. Starting 24 h after ADR injection, vehicle, or different doses of compounds, were given once daily by oral gavage for 35 days. The doses of compounds tested were the following: LXR agonist (Cpd C, 10 mg/Kg); ABCA1 inducers Cpd A and Cpd G (30 mg/Kg and 100 mg/Kg). Body weight measurements and spot urine collection was done once a week. Animals were sacrificed 35 days after ADR injection (FIG. 1).
Spot urine samples were collected for all mice at baseline and time of sacrifice. Urinary albumin and creatinine were determined using an albumin ELISA kit (Bethyl laboratories) and a colorimetric assay for creatinine determination (Stanbio). Albuminuria was calculated and expressed as μg of albumin divided by mg of creatinine. For diabetic mouse model, weight and glycaemia were measured on a bi-weekly basis.

ADR-injected Balb/c mice = assay: Toxicity by serology in ADR-injected mice (WBC, hemoglobin, hematocrit, transaminases); format: in vivo, mouse; details: for ALT / HCT / HEMOGLOBIN / WBC: 35-day treatment, ADR-injected; for liver toxicity and blood dyscrasias (serology): all treated animals
Description: We next investigated compounds C, A and G toxicity by serology. More specifically, we determined hematocrit, hemoglobin white cell blood count and liver transaminases ALT and AST of all treated animals to determine if liver toxicity and blood dyscrasias were associated with the compounds.

[5] = 30 mg/Kg once daily oral gavage
[6] = 100 mg/Kg once daily oral gavage

`O=C(N[C@@H]1CCCC[C@H]1O)c1ccc(OCC(F)(F)F)c(-c2ccc(Cl)c(Cl)c2)n1` [Cpd A, 6-(3,4-Dichlorophenyl)-N-[(1R,2R)-2-hydroxycyclohexyl]-5-(2,2,2-trifluoroethoxy)pyridine-2-carboxamide] was tested, and the “ABCA1 expression (western blot, whole cell lysates)” value (“ABCA1 expression” for short) (ABCA1 [1]; 5 uM, FIG. 4B) was “modest increase”, the “ABCA1 expression” value (ABCA1 [1]; 10 uM) was “modest induction; also recorded: increased ABCA1 expression” and the “ABCA1 in the microsomal compartment” value (ABCA1 [2]; 5 μM) was “Less ABCA1”. The “ABCA1 localization at the plasma membrane” value (shortened to “ABCA1 localization”) (ABCA1 [2]; 5 μM) was “increase the expression of ABCA1 at the plasma membrane; also recorded: promoted ABCA1 localization at the plasma membrane”, the ApoA1-mediated cholesterol efflux (ABCA1 [3]; 5 μM) was “increase ApoA1-mediated cholesterol efflux; also recorded: Significant increase” and the Albuminuria / proteinuria [4, 5] was “attenuated; also recorded: reduced”. The Body weight loss [4, 5] was “partially attenuated; also recorded: prevented”, the “TOTAL CHOL (blood)” value ([4]; 30 mg/Kg) was 86.3 ± 8.8 mg/dL and the TRIGLYCERIDES (blood) ([4]; 30 mg/Kg) was 57.6 ± 15.5 mg/dL. The “TOTAL CHOL (blood)” value ([4]; 100 mg/Kg) was 226.7 ± 173.4 mg/dL, the TRIGLYCERIDES (blood) ([4]; 100 mg/Kg) was 47.3 ± 7.5 mg/dL and the ALT (ADR-injected Balb/c mice; 30 mg/Kg) was 365.3 ± 181.2 U/L. For the same compound, the HCT (ADR-injected Balb/c mice; 30 mg/Kg) was 51.8 ± 3.3%, the HEMOGLOBIN (ADR-injected Balb/c mice; 30 mg/Kg) was 13.9 ± 1.1 g/dL and the WBC (ADR-injected Balb/c mice; 30 mg/Kg) was 4.6 ± 1.3 ×10^∧3 cells/ul. The “liver toxicity and blood dyscrasias (serology)” value (ADR-injected Balb/c mice) was “No apparent signs of such toxicities” and the ALT (ADR-injected Balb/c mice; first ALT line (r15), 30 mg/Kg) was 339.3 ± 274.8 U/L.
`Cc1oc(-c2cccc(C(F)(F)F)c2)nc1Cn1c(C)cc2cc(C(O)(C(F)(F)F)C(F)(F)F)ccc21` [Cpd C, 1,1,1,3,3,3-Hexafluoro-2-{2-methyl-1-[5-methyl-2-(3-trifluoromethyl-phenyl)-oxazol-4-ylmethyl]-1H-indol-5-yl}-propan-2-ol, reference compound] was tested, and the “ABCA1 expression” value (ABCA1 [1]; doses as low as 1 uM, FIG. 4A) was “strong induction; also recorded: markedly increased”, the “ABCA1 localization” value (ABCA1 [2]; 1 μM) was “increase the expression of ABCA1 at the plasma membrane; also recorded: promoted ABCA1 localization at the plasma membrane” and the ApoA1-mediated cholesterol efflux (ABCA1 [3]; 1 μM) was “increase ApoA1-mediated cholesterol efflux; also recorded: Significant increase”. For the same compound, the Albuminuria / proteinuria ([4]; 10 mg/Kg once daily oral gavage) was “No significant differences”, the “TOTAL CHOL (blood)” value ([4]; 10 mg/Kg) was 117.4 ± 66.8 mg/dL and the TRIGLYCERIDES (blood) ([4]; 10 mg/Kg) was 57.2 ± 6.3 mg/dL. For the same compound, the ALT (ADR-injected Balb/c mice; 10 mg/Kg) was 213.0 ± 151.7 U/L, the HCT (ADR-injected Balb/c mice; 10 mg/Kg) was 44.8 ± 1.5% and the HEMOGLOBIN (ADR-injected Balb/c mice; 10 mg/Kg) was 12.2 ± 1.0 g/dL. The WBC (ADR-injected Balb/c mice; 10 mg/Kg) was 7.6 ± 4.4 ×10^∧3 cells/ul, the “liver toxicity and blood dyscrasias (serology)” value (ADR-injected Balb/c mice) was “No apparent signs of such toxicities” and the ALT (ADR-injected Balb/c mice; first ALT line (r15), 10 mg/Kg) was 299.5 ± 365.0 U/L.
In the case of `O=C(N[C@@H]1CCCC[C@H]1O)c1cnc(OCC(F)(F)F)c(-c2ccc(Cl)c(Cl)c2)c1` [Cpd G, 5-(3,4-dichloro-phenyl)-N-((1R,2R)-2-hydroxy-cyclohexyl)-6-(2,2,2-trifluoro-ethoxy)-nicotinamide], the “ABCA1 expression” value (ABCA1 [1]; 10 uM) is reported as “modest induction; also recorded: modest increase; also recorded: increased ABCA1 expression”, the “ABCA1 in the microsomal compartment” value (ABCA1 [2]; 10 μM) is reported as “Less ABCA1” and the “ABCA1 localization” value (ABCA1 [2]; 10 μM) is reported as “increase the expression of ABCA1 at the plasma membrane; also recorded: promoted ABCA1 localization at the plasma membrane”. For the same compound, the ApoA1-mediated cholesterol efflux (ABCA1 [3]; 10 μM) was “increase ApoA1-mediated cholesterol efflux; also recorded: Significant increase”, the “TOTAL CHOL (blood)” value ([4]; 30 mg/Kg) was 136.3 ± 38.9 mg/dL and the TRIGLYCERIDES (blood) ([4]; 30 mg/Kg) was 51 ± 16.8 mg/dL. The Albuminuria / proteinuria [4, 6] was “attenuated; also recorded: reduced”, the Body weight loss [4, 6] was “partially attenuated; also recorded: prevented” and the “TOTAL CHOL (blood)” value ([4]; 100 mg/Kg) was 109.7 ± 11.0 mg/dL. It also gave a TRIGLYCERIDES (blood) ([4]; 100 mg/Kg) of 62 ± 16.5 mg/dL, an ALT (ADR-injected Balb/c mice; 30 mg/Kg) of 323.4 ± 87.1 U/L and an HCT (ADR-injected Balb/c mice; 30 mg/Kg) of 49.5 ± 4.4%. The HEMOGLOBIN (ADR-injected Balb/c mice; 30 mg/Kg) was 12.9 ± 1.0 g/dL, the WBC (ADR-injected Balb/c mice; 30 mg/Kg) was 6.3 ± 1.2 ×10^∧3 cells/ul and the ALT (ADR-injected Balb/c mice; 100 mg/Kg) was 212.4 ± 91.1 U/L. For the same compound, the HCT (ADR-injected Balb/c mice; 100 mg/Kg) was 49.6 ± 2.3%, the HEMOGLOBIN (ADR-injected Balb/c mice; 100 mg/Kg) was 13.1 ± 0.6 g/dL and the WBC (ADR-injected Balb/c mice; 100 mg/Kg) was 4.7 ± 1.6 ×10^∧3 cells/ul. For the same compound, the “liver toxicity and blood dyscrasias (serology)” value (ADR-injected Balb/c mice) was “No apparent signs of such toxicities”, the ALT (ADR-injected Balb/c mice; first ALT line (r15), 30 mg/Kg) was 181.6 ± 69.0 U/L and the ALT (ADR-injected Balb/c mice; first ALT line (r15), 100 mg/Kg) was 191.4 ± 79.9 U/L.
